Source: EP4745138A1, “THIO-GLUTARIMIDO ISOINDOLINONE DERIVATIVE, BIFUNCTIONAL PROTEIN DEGRADER CONTAINING SAME, AND USES THEREOF” (Gluetacs Therapeutics (Shanghai) Co., Ltd., priority 2023, dated 2025)

What was measured:
CDK9 = molecular target: T1, CDK9 (Homo sapiens, UniProt P50750); assay: Western blot, target protein degradation in MDA-MB-231 Cell; assay type: cell-based; details: substrate protein remaining %, treated at 500 nM and 50 nM, 24 hours
T1 construct: endogenous in cells; host or cells: MDA-MB-231
T1 sequence (P50750 whole entry): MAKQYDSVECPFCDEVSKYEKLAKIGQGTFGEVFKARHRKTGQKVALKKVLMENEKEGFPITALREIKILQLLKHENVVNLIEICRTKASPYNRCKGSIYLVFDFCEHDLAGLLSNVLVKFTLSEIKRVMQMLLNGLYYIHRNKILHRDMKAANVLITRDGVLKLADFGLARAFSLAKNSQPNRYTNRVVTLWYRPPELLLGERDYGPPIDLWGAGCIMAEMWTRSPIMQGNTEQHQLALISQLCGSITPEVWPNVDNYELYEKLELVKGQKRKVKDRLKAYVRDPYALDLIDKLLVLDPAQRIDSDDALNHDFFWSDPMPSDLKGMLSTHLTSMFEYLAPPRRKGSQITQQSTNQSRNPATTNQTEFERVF
Method: Conventional Western blot assay was performed to evaluate the effects of the compounds of the present disclosure on the expression of target proteins in cells.
(1) Cell Seeding and Protein Harvesting: The selected cells were processed according to the cell seeding procedure and protein harvesting procedure in Table II-2. Table II-2 Cell Seeding and Protein Harvesting Procedures
(2) To the collected supernatant, 5X SDS sample loading buffer was added, followed by denaturation at 95°C for 5 minutes. The denatured samples were then separated by SDS-PAGE electrophoresis on a polyacrylamide gel. Proteins were transferred to a nitrocellulose membrane (0.45 µm NC membrane), blocked with blocking buffer at room temperature for 1 hour, and subjected to antibody incubation and development procedures according to the antibody manufacturer's instructions (Cell Signaling Technology).
Half-Maximal Degradation Concentration value (the drug concentration required for degrading proteins by 50%, abbreviated as DC50) reads method: comparing the grayscale values of Western blot bands from drug-treated samples with those from blank DMSO-treated controls, and identifying the drug concentration range at which the grayscale value is half that of the DMSO-treated control bands.
DC50 values can be calculated using ImageJ software to measure grayscale values of Western blot bands from drug-treated samples. The concentration-response curve is fitted to estimate the drug concentration corresponding to half the grayscale value.
Target protein remaining (%) refers to the percentage of target protein remaining in cells after treatment with protein degrader compounds.
Calculation method for target protein remaining (%): Use ImageJ software to measure grayscale values of Western blot bands from drug (protein degrader)-treated samples. The grayscale value of drug-treated bands is divided by that of internal control protein bands, and the resulting quotient is normalized to obtain the relative percentage of remaining target protein after protein degrader treatment. Target protein degradation rate(%) = 1−target protein remaining(%). [formula]

[1] = molecular target: T2, human Cereblon WT GST-tagged protein (Homo sapiens, UniProt Q96SW2); assay: CRBN-binding affinity, HTRF (CEREBLON BINDING kit); details: for inhibition at 0.5 µM: read-out: Inhibition Rate at 0.5 µM (%); for inhibition at 2 µM: read-out: Inhibition Rate at 2 µM (%)
T2 construct: purchased CISBIO 64BDCRBNPEH
T2 sequence (Q96SW2 whole entry): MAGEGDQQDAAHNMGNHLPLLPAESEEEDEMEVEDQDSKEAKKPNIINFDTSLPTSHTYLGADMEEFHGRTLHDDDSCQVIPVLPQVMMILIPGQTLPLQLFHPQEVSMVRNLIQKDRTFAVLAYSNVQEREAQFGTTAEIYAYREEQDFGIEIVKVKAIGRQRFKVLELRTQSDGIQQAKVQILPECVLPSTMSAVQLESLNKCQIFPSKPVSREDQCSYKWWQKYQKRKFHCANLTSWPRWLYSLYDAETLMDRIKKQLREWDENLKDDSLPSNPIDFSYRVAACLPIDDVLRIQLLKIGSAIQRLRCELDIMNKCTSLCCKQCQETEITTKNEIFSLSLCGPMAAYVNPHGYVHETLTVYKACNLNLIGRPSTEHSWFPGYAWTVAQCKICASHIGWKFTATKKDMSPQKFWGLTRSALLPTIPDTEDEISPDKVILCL
Procedure, shortened: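 HTRF competition against a thalidomide-red probe using GST-tagged Cereblon and Eu-labelled anti-GST antibody. Test concentrations (final): 2 µM and 0.5 µM in diluent #9 (1X); blank controls lack compound and protein, containing PROTAC binding buffer.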

MM.1S = assay: Tumor cell proliferation inhibition (CellTiter-Meiluncell Luminescent Cell Viability Assay); assay type: cell-based; details: Homo sapiens, MM1.S, MM.1S, 96 hours, Table I-7, CDK9 inhibitors; for inhibition at 0.01 µM: 10 nM, read-out: Inhibition Rate at 10 nM (%); for inhibition at 0.5 µM: 500 nM, read-out: Inhibition Rate at 500 nM (%)
Procedure, shortened: (§1)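 Following overnight seeding, tumor cells received serial compound dilutions to final levels that included 10 nM and 500 nM. Viability was assessed by luminescence at the end of the specified exposure time. Cultures were kept at 37°C with 5% CO2.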

MV-4-11 = assay: as above; assay type: cell-based; details: Homo sapiens, 96 hours, Table I-7, CDK9 inhibitors; for inhibition at 0.01 µM: MV4-11, 10 nM, read-out: Inhibition Rate at 10 nM (%); for inhibition at 0.5 µM: MV4-11, 500 nM, read-out: Inhibition Rate at 500 nM (%)
Procedure, shortened: as §1

H1975 = assay: as above; assay type: cell-based; details: Homo sapiens, 96 hours, Table I-3, EGFR inhibitors; for inhibition at 0.01 µM: NCI-H1975, 10 nM, read-out: Inhibition Rate at 10 nM (%); for inhibition at 0.5 µM: NCI-H1975, 500 nM, read-out: Inhibition Rate at 500 nM (%)
Procedure, shortened: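 Luminescent viability read-out (CellTiter-Meiluncell) after compound exposure for a specified time; IC50 determined. Seeding was done the day before dosing with serially diluted compound, final concentrations including 500 nM and 10 nM. Culture at 37°C, 5% CO2.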

Structure (SMILES)	Degradation of substrate protein CDK9 (CDK9)	inhibition at 0.5 µM [1]	inhibition at 2 µM [1]	inhibition at 0.01 µM (MM.1S)	inhibition at 0.5 µM (MM.1S)	inhibition at 0.01 µM (MV-4-11)	inhibition at 0.5 µM (MV-4-11)	inhibition at 0.01 µM (H1975)	inhibition at 0.5 µM (H1975)
N#CC1(CNc2nc(-c3cc(NC4CCN(Cc5ccc6c(c5)CN(C5CCC(=O)NC5=O)C6=S)CC4)ncc3Cl)cs2)CCOCC1 (stereo not shown) [GT-08681, 4-(((4-(5-chloro-2-((1-((2-(2,6-dioxopiperidin-3-yl)-1-thioxoisoindolin-5-yl)methyl)piperidin-4-yl)amino)pyridin-4-yl)thiazol-2-yl)amino)methyl)tetrahy dro-2H-pyran-4-carbonitrile]	A (0% ≤ substrate protein remaining % ≤ 80%)	53 to 60%	80 to 100%	–	–	–	–	–	–
Cn1ncc(-c2nc(NC3CCN(Cc4ccc5c(c4)CN(C4CCC(=O)NC4=O)C5=S)CC3)ncc2Cl)c1CC1CC1 (stereo not shown) [GT-08682, 3-(5-((4-((5-chloro-4-(5-(cyclopropylmethyl)-1-methyl-1H-pyrazol-4-yl)pyrimidin-2-yl)amino)piperidin-1-yl)methyl)-1-thioxoisoindolin-2-yl)piperidine-2,6-dione]	A (0% ≤ substrate protein remaining % ≤ 80%)	60 to 80%	80 to 100%	10 to 20%	50 to 60%	30 to 40%	60 to 70%	–	–
N#CC1(CNc2cccc(-c3cc(NC4CCN(Cc5ccc6c(c5)CN(C5CCC(=O)NC5=O)C6=S)CC4)ncc3Cl)n2)CCOCC1 (stereo not shown) [GT-08683, 4-(((5'-chloro-2'-((1-((2-(2,6-dioxopiperidin-3-yl)-1-thioxoisoindolin-5-yl)methyl)piperidin-4-yl)amino)-[2,4'-bipyridin]-6-yl)amino)methyl)tetrahy dro-2H-pyran-4-carbonitrile]	A (0% ≤ substrate protein remaining % ≤ 80%)	40 to 53%	80 to 100%	–	–	50 to 60%	50 to 60%	–	–
O=C1CCC(N2Cc3cc(CN4CCN(c5ccc(CC(=O)Nc6cc(C7CCC7)[nH]n6)cc5)CC4)ccc3C2=S)C(=O)N1 (stereo not shown) [GT-08684, N-(5-cyclobutyl-1H-pyrazol-3-yl)-2-(4-(4-((2-(2,6-dioxopiperidin-3-yl)-1-thioxoisoindolin-5-yl)methyl)piperazin-1-yl)phenyl)acetamide]	A (0% ≤ substrate protein remaining % ≤ 80%)	60 to 80%	80 to 100%	–	–	–	–	–	–
N#CC1(CNc2nc(-c3cc(NC4CCN(Cc5cccc6c5CN(C5CCC(=O)NC5=O)C6=S)CC4)ncc3Cl)cs2)CCOCC1 (stereo not shown) [GT-08685, 4-(((4-(5-chloro-2-((1-((2-(2,6-dioxopiperidin-3-yl)-1-thioxoisoindolin-4-yl)methyl)piperidin-4-yl)amino)pyridin-4-yl)thiazol-2-yl)amino)methyl)tetrahy dro-2H-pyran-4-carbonitrile]	A (0% ≤ substrate protein remaining % ≤ 80%)	53 to 60%	80 to 100%	–	–	–	–	–	–
Cn1ncc(-c2nc(NC3CCN(Cc4cccc5c4CN(C4CCC(=O)NC4=O)C5=S)CC3)ncc2Cl)c1CC1CC1 (stereo not shown) [GT-08686, 3-(4-((4-((5-chloro-4-(5-(cyclopropylmethyl)-1-methyl-1H-pyrazol-4-yl)pyrimidin-2-yl)amino)piperidin-1-yl)methyl)-1-thioxoisoindolin-2-yl)piperidine-2,6-dione]	A (0% ≤ substrate protein remaining % ≤ 80%)	53 to 60%	80 to 100%	0 to 5%	80 to 100%	50 to 60%	80 to 100%	–	–
N#CC1(CNc2cccc(-c3cc(NC4CCN(Cc5cccc6c5CN(C5CCC(=O)NC5=O)C6=S)CC4)ncc3Cl)n2)CCOCC1 (stereo not shown) [GT-08687, 4-(((5'-chloro-2'-((1-((2-(2,6-dioxopiperidin-3-yl)-1-thioxoisoindolin-4-yl)methyl)piperidin-4-yl)amino)-[2,4'-bipyridin]-6-yl)amino)methyl)tetrahy dro-2H-pyran-4-carbonitrile]	A (0% ≤ substrate protein remaining % ≤ 80%)	30 to 40%	60 to 80%	–	–	–	–	–	–
O=C1CCC(N2Cc3c(CN4CCN(c5ccc(CC(=O)Nc6cc(C7CCC7)[nH]n6)cc5)CC4)cccc3C2=S)C(=O)N1 (stereo not shown) [GT-08688, N-(5-cyclobutyl-1H-pyrazol-3-yl)-2-(4-(4-((2-(2,6-dioxopiperidin-3-yl)-1-thioxoisoindolin-4-yl)methyl)piperazin-1-yl)phenyl)acetamide]	A (0% ≤ substrate protein remaining % ≤ 80%)	60 to 80%	80 to 100%	–	–	40 to 50%	50 to 60%	–	–
N#CC1(CNc2cccc(-c3cc(NC4CCN(Cc5ccc6c(c5)C(=S)N(C5CCC(=O)NC5=O)C6)CC4)ncc3Cl)n2)CCOCC1 (stereo not shown) [GT-08752, 4-(((5'-chloro-2'-((1-((2-(2,6-dioxopiperidin-3-yl)-3-thioxoisoindolin-5-yl)methyl)piperidin-4-yl)amino)-[2,4'-bipyridin]-6-yl)amino)methyl)tetrahy dro-2H-pyran-4-carbonitrile]	A (0% ≤ substrate protein remaining % ≤ 80%)	53 to 60%	80 to 100%	–	–	10 to 20%	70 to 80%	–	–
O=C1CCC(N2Cc3ccc(CN4CCN(c5ccc(CC(=O)Nc6cc(C7CCC7)[nH]n6)cc5)CC4)cc3C2=S)C(=O)N1 (stereo not shown) [GT-08753, N-(5-cyclobutyl-1H-pyrazol-3-yl)-2-(4-(4-((2-(2,6-dioxopiperidin-3-yl)-3-thioxoisoindolin-5-yl)methyl)piperazin-1-yl)phenyl)acetamide]	A (0% ≤ substrate protein remaining % ≤ 80%)	60 to 80%	80 to 100%	–	–	–	–	–	–
O=C1CCC(N2Cc3cc(CN4C[C@H]5C[C@@H]4CN5c4ccc(-c5cc(F)c6c(c5)C(=O)N(C(C(=O)Nc5nccs5)c5ncn7c5CCC7)C6)cc4)ccc3C2=S)C(=O)N1 (stereo partly drawn) [GT-08757, 2-(6,7-dihydro-5H-pyrrolo[1,2-c]imidazol-1-yl)-2-(6-(4-((1R,4R)-5-((2-(2,6-dioxopiperidin-3-yl)-1-thioxoisoindolin-5-yl)methyl)-2,5-diazabicyclo[2.2.1]heptan-2-yl)phenyl)-4-fluoro-1-oxoisoindolin-2-yl)-N-(thiazol-2-vl)acetamide]	–	53 to 60%	60 to 80%	–	–	–	–	20 to 30%	50 to 60%
O=C1CCC(N2Cc3c(CN4C[C@H]5C[C@@H]4CN5c4ccc(-c5cc(F)c6c(c5)C(=O)N(C(C(=O)Nc5nccs5)c5ncn7c5CCC7)C6)cc4)cccc3C2=S)C(=O)N1 (stereo partly drawn) [GT-08760, 2-(6,7-dihydro-5H-pyrrolo[1,2-c]imidazol-1-yl)-2-(6-(4-((1R,4R)-5-((2-(2,6-dioxopiperidin-3-yl)-1-thioxoisoindolin-4-yl)methyl)-2,5-diazabicyclo[2.2.1]heptan-2-yl)phenyl)-4-fluoro-1-oxoisoindolin-2-yl)-N-(thiazol-2-yl)acetamide]	–	30 to 40%	53 to 60%	–	–	–	–	20 to 30%	50 to 60%
